Measurements taken from patent US9695155B2, “Herbicidal substituted pyrimidinyloxy benzene compounds” (E. I. DU PONT DE NEMOURS AND COMPANY, priority 2013, dated 2017).

Columns and labels:
blackgrass = test: Test C preemergence; assay type: in vivo, Alopecurus myosuroides; conditions: for Blackgrass plant response rating: preemergence; for Plant response rating, Blackgrass: Preemergence, scale 0 to 100, 0 no effect, 100 complete control
Text: (§1) Seeds of plant species selected from blackgrass (Alopecurus myosuroides), Italian ryegrass (Lolium multiflorum), wheat, winter (winter wheat, Triticum aestivum), galium (catchweed bedstraw, Galium aparine), corn (Zea mays), large (Lg) crabgrass (Digitaria sanguinalis), giant foxtail (Setaria faberii), johnsongrass (Sorghum halepense), lambsquarters (Chenopodium album), morningglory (Ipomoea coccinea), yellow nutsedge (Cyperus esculentus), pigweed (Amaranthus retroflexus), ragweed (common ragweed, Ambrosia elatior), soybean (Glycine max), barnyardgrass (Echinochloa crus-galli), oilseed rape (Brassica napus), waterhemp (common waterhemp, Amaranthus rudis), kochia (Kochia scoparia), wild oat (Avena fatua), surinam grass (Brachiaria decumbens), foxtail, green (green foxtail, Setaria viridis), goosegrass (Eleusine indica), bromegrass, downy (downy bromegrass, Bromus tectorum), nightshade (eastern black nightshade, Solanum ptycanthum), cocklebur (common cocklebur, Xanthium strumarium), cupgrass, woolly (woolly cupgrass, Eriochloa villosa), bermudagrass (Cynodon dactylon), sunflower, (common oilseed sunflower, Helianthus annuus), Russian thistle (Salsola kali), and velvetleaf (Abutilon theophrasti) were planted into a blend of loam soil and sand and treated preemergence with test chemicals formulated in a non-phytotoxic solvent mixture which included a surfactant.
(§2) At the same time, plants selected from these crop and weed species and also barley, winter (winter barley, Hordeum vulgare), windgrass (Apera spica-venti), chickweed (common chickweed, Stellaria media), deadnettle (henbit deadnettle, Lamium amplexicaule), and canarygrass (littleseed canarygrass, Phalaris minor) were planted in pots containing Redi-Earth® planting medium (Scotts Company, 14111 Scottslawn Road, Marysville, Ohio 43041) comprising spaghnum peat moss, vermiculite, wetting agent and starter nutrients and treated with postemergence applications of test chemicals formulated in the same manner. Plants ranged in height from 2 to 18 cm (1- to 4-leaf stage) for postemergence treatments. Treated plants and controls were maintained in a greenhouse for 13 to 15 days, after which time all species were compared to controls and visually evaluated. Plant response ratings, summarized in Table C, are based on a scale of 0 to 100 where 0 is no effect and 100 is complete control. A dash (-) response means no test result.

oilseed rape = test: Test C preemergence; assay type: in vivo, Brassica napus; conditions: for Oilseed Rape plant response rating: preemergence; for Plant response rating, Oilseed Rape: Preemergence, scale 0 to 100, 0 no effect, 100 complete control
Text: as §1, §2

wheat, winter = test: Test C preemergence; assay type: in vivo, Triticum aestivum; conditions: for Wheat plant response rating: preemergence; for Plant response rating, Wheat: Preemergence, scale 0 to 100, 0 no effect, 100 complete control
Text: as §1, §2

corn = test: Test C preemergence; assay type: in vivo, Zea mays; conditions: for Corn plant response rating: preemergence; for Plant response rating, Corn: Preemergence, scale 0 to 100, 0 no effect, 100 complete control
Text: as §1, §2

ragweed [1] = test: Test C preemergence; assay type: in vivo, Ambrosia elatior; conditions: for Ragweed plant response rating: preemergence; for Plant response rating, Ragweed: Preemergence, scale 0 to 100, 0 no effect, 100 complete control
Text: as §1, §2

giant foxtail = test: Test C preemergence; assay type: in vivo, Setaria faberii; conditions: for Foxtail, Giant plant response rating: preemergence; for Plant response rating, Foxtail, Giant: Preemergence, scale 0 to 100, 0 no effect, 100 complete control
Text: as §1, §2

Italian ryegrass = test: Test C preemergence; assay type: in vivo, Lolium multiflorum; conditions: for Ryegrass, Italian plant response rating: preemergence; for Plant response rating, Ryegrass, Italian: Preemergence, scale 0 to 100, 0 no effect, 100 complete control
Text: as §1, §2

morningglory = test: Test C preemergence; assay type: in vivo, Ipomoea coccinea; conditions: for Morningglory plant response rating: preemergence; for Plant response rating, Morningglory: Preemergence, scale 0 to 100, 0 no effect, 100 complete control
Text: as §1, §2

lambsquarters = test: Test C preemergence; assay type: in vivo, Chenopodium album; conditions: for Lambsquarters plant response rating: preemergence; for Plant response rating, Lambsquarters: Preemergence, scale 0 to 100, 0 no effect, 100 complete control
Text: as §1, §2

velvetleaf = test: Test C preemergence; assay type: in vivo, Abutilon theophrasti; conditions: for Velvetleaf plant response rating: preemergence; for Plant response rating, Velvetleaf: Preemergence, scale 0 to 100, 0 no effect, 100 complete control
Text: as §1, §2

johnsongrass = test: Test C preemergence; assay type: in vivo, Sorghum halepense; conditions: for Johnsongrass plant response rating: preemergence; for Plant response rating, Johnsongrass: Preemergence, scale 0 to 100, 0 no effect, 100 complete control
Text: as §1, §2

galium = test: Test C preemergence; assay type: in vivo, Galium aparine; conditions: for Galium plant response rating: preemergence; for Plant response rating, Galium: Preemergence, scale 0 to 100, 0 no effect, 100 complete control
Text: as §1, §2

soybean = test: Test C preemergence; assay type: in vivo, Glycine max; conditions: for Soybean plant response rating: preemergence; for Plant response rating, Soybean: Preemergence, scale 0 to 100, 0 no effect, 100 complete control
Text: as §1, §2

barnyardgrass = test: Test C preemergence; assay type: in vivo, Echinochloa crus-galli; conditions: for Barnyardgrass plant response rating: preemergence; for Plant response rating, Barnyardgrass: Preemergence, scale 0 to 100, 0 no effect, 100 complete control
Text: as §1, §2

kochia [2] = test: Test A preemergence; assay type: in vivo, Kochia scoparia; conditions: for Plant response rating, Kochia: 0 to 100 scale where 0 is no effect and 100 is complete control
How it was run: (§3)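 Greenhouse pot test, loam/sand soil. Formulation: non-phytotoxic solvent mix plus surfactant. Pre: directed spray onto soil after sowing. Post: plants at 1–2 leaf, 2–10 cm. Rated visually vs untreated controls at ~10 d, 0 (no effect) to 100 (complete control).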

kochia [3] = test: Test A postemergence; assay type: in vivo, Kochia scoparia; conditions: for Plant response rating, Kochia: 0 to 100 scale, 0 no effect, 100 complete control
How it was run: as §3

ragweed [4] = test: Test A postemergence; assay type: in vivo, Ambrosia elatior; conditions: for Plant response rating, Ragweed: 0 to 100 scale, 0 no effect, 100 complete control
How it was run: as §3

[5] = 16 g ai/ha, scale 0 to 100 (0 no effect, 100 complete control)
[6] = 125 g ai/ha, scale 0 (no effect) to 100 (complete control)
[7] = 62 g ai/ha, scale 0 (no effect) to 100 (complete control)
[8] = 125 g ai/ha, 0 to 100 scale where 0 is no effect and 100 is complete control

Compound: Cc1cnc(Oc2cccc(C#N)c2-n2cc(C(F)(F)F)cn2)nc1 [Compound 180]
- Blackgrass plant response rating (blackgrass; [5]): 20
- Blackgrass plant response rating (blackgrass; [6]): 90
- Plant response rating, Blackgrass (blackgrass; 62 g ai/ha): 90
- Oilseed Rape plant response rating (oilseed rape; [5]): 55
- Oilseed Rape plant response rating (oilseed rape; [6]): 100
- Plant response rating, Oilseed Rape (oilseed rape; 62 g ai/ha): 100
- Wheat plant response rating (wheat, winter; [5]): 0
- Wheat plant response rating (wheat, winter; [6]): 50
- Plant response rating, Wheat (wheat, winter; 62 g ai/ha): 5
- Corn plant response rating (corn; [5]): 5
- Corn plant response rating (corn; [6]): 65
- Plant response rating, Corn (corn; 62 g ai/ha): 30
- Ragweed plant response rating (ragweed [1]; [5]): 20
- Ragweed plant response rating (ragweed [1]; [6]): 98
- Plant response rating, Ragweed (ragweed [1]; 62 g ai/ha): 80
- Foxtail, Giant plant response rating (giant foxtail; [5]): 90
- Foxtail, Giant plant response rating (giant foxtail; [6]): 100
- Plant response rating, Foxtail, Giant (giant foxtail; 62 g ai/ha): 100
- Ryegrass, Italian plant response rating (Italian ryegrass; [5]): 5
- Ryegrass, Italian plant response rating (Italian ryegrass; [6]): 80
- Plant response rating, Ryegrass, Italian (Italian ryegrass; 62 g ai/ha): 50
- Morningglory plant response rating (morningglory; [5]): 35
- Morningglory plant response rating (morningglory; [6]): 100
- Plant response rating, Morningglory (morningglory; 62 g ai/ha): 100
- Lambsquarters plant response rating (lambsquarters; [5]): 85
- Lambsquarters plant response rating (lambsquarters; [6]): 100
- Plant response rating, Lambsquarters (lambsquarters; 62 g ai/ha): 100
- Velvetleaf plant response rating (velvetleaf; [5]): 75
- Velvetleaf plant response rating (velvetleaf; [6]): 100
- Plant response rating, Velvetleaf (velvetleaf; 62 g ai/ha): 100
- Johnsongrass plant response rating (johnsongrass; [5]): 0
- Johnsongrass plant response rating (johnsongrass; [6]): 98
- Plant response rating, Johnsongrass (johnsongrass; 62 g ai/ha): 75
- Galium plant response rating (galium; [5]): 80
- Galium plant response rating (galium; [6]): 100
- Plant response rating, Galium (galium; 62 g ai/ha): 100
- Soybean plant response rating (soybean; [5]): 90
- Soybean plant response rating (soybean; [6]): 98
- Plant response rating, Soybean (soybean; 62 g ai/ha): 98
- Barnyardgrass plant response rating (barnyardgrass; [5]): 60
- Barnyardgrass plant response rating (barnyardgrass; [6]): 100
- Plant response rating, Barnyardgrass (barnyardgrass; 62 g ai/ha): 100

Compound: Fc1cnc(Oc2cccc(C(F)F)c2-n2cc(Cl)cn2)nc1 [Compound 94]
- Blackgrass plant response rating (blackgrass; [5]): 5
- Blackgrass plant response rating (blackgrass; [7]): 90
- Blackgrass plant response rating (blackgrass; [6]): 90
- Plant response rating, Blackgrass (blackgrass; 31 g ai/ha): 20
- Oilseed Rape plant response rating (oilseed rape; [5]): 85
- Oilseed Rape plant response rating (oilseed rape; [7]): 98
- Oilseed Rape plant response rating (oilseed rape; [6]): 98
- Plant response rating, Oilseed Rape (oilseed rape; 31 g ai/ha): 98
- Wheat plant response rating (wheat, winter; [5]): 0
- Wheat plant response rating (wheat, winter; [7]): 0
- Wheat plant response rating (wheat, winter; [6]): 5
- Plant response rating, Wheat (wheat, winter; 31 g ai/ha): 0
- Corn plant response rating (corn; [5]): 5
- Corn plant response rating (corn; [7]): 5
- Corn plant response rating (corn; [6]): 55
- Plant response rating, Corn (corn; 31 g ai/ha): 5
- Ragweed plant response rating (ragweed [1]; [5]): 0
- Ragweed plant response rating (ragweed [1]; [7]): 10
- Ragweed plant response rating (ragweed [1]; [6]): 25
- Plant response rating, Ragweed (ragweed [1]; 31 g ai/ha): 0
- Foxtail, Giant plant response rating (giant foxtail; [5]): 5
- Foxtail, Giant plant response rating (giant foxtail; [7]): 100
- Foxtail, Giant plant response rating (giant foxtail; [6]): 100
- Plant response rating, Foxtail, Giant (giant foxtail; 31 g ai/ha): 65
- Ryegrass, Italian plant response rating (Italian ryegrass; [5]): 0
- Ryegrass, Italian plant response rating (Italian ryegrass; [7]): 10
- Ryegrass, Italian plant response rating (Italian ryegrass; [6]): 50
- Plant response rating, Ryegrass, Italian (Italian ryegrass; 31 g ai/ha): 0
- Morningglory plant response rating (morningglory; [5]): 0
- Morningglory plant response rating (morningglory; [7]): 40
- Morningglory plant response rating (morningglory; [6]): 90
- Plant response rating, Morningglory (morningglory; 31 g ai/ha): 30
- Lambsquarters plant response rating (lambsquarters; [5]): 40
- Lambsquarters plant response rating (lambsquarters; [7]): 100
- Lambsquarters plant response rating (lambsquarters; [6]): 100
- Plant response rating, Lambsquarters (lambsquarters; 31 g ai/ha): 85
- Velvetleaf plant response rating (velvetleaf; [5]): 40
- Velvetleaf plant response rating (velvetleaf; [7]): 100
- Velvetleaf plant response rating (velvetleaf; [6]): 100
- Plant response rating, Velvetleaf (velvetleaf; 31 g ai/ha): 100
- Johnsongrass plant response rating (johnsongrass; [5]): 0
- Johnsongrass plant response rating (johnsongrass; [7]): 35
- Johnsongrass plant response rating (johnsongrass; [6]): 70
- Plant response rating, Johnsongrass (johnsongrass; 31 g ai/ha): 25
- Galium plant response rating (galium; [5]): 80
- Galium plant response rating (galium; [7]): 98
- Galium plant response rating (galium; [6]): 100
- Plant response rating, Galium (galium; 31 g ai/ha): 98
- Soybean plant response rating (soybean; [5]): 35
- Soybean plant response rating (soybean; [7]): 85
- Soybean plant response rating (soybean; [6]): 95
- Plant response rating, Soybean (soybean; 31 g ai/ha): 50
- Barnyardgrass plant response rating (barnyardgrass; [5]): 5
- Barnyardgrass plant response rating (barnyardgrass; [7]): 85
- Barnyardgrass plant response rating (barnyardgrass; [6]): 100
- Plant response rating, Barnyardgrass (barnyardgrass; 31 g ai/ha): 10

Compound: N#Cc1cnn(-c2c(Br)cccc2Oc2ncc(Cl)cn2)c1 [Compound 140]
- Plant response rating, Kochia (kochia [2]; 31 g ai/ha, visual, approximately 10 days): 60
- Plant response rating, Kochia (kochia [2]; 125 g ai/ha): 100
- Plant response rating, Kochia (kochia [3]; 31 g ai/ha): 90
- Kochia plant response rating (kochia [3]; [8]): 100
- Plant response rating, Ragweed (ragweed [4]; 31 g ai/ha): 60
- Ragweed plant response rating (ragweed [4]; [8]): 70

Compound: Clc1cnc(Oc2ccccc2-n2cc(C3CC3)nn2)nc1 [Compound 160, 5-chloro-2-[2-(4-cyclopropyl-1H-1,2,3-triazol-1-yl)phenoxy]pyrimidine]
- Kochia plant response rating (kochia [2]; 1000 g ai/ha, 0 to 100 scale, 0 no effect, 100 complete control, approx. 10 days): 100
- Plant response rating, Kochia (kochia [3]; 1000 g ai/ha): 100
- Plant response rating, Ragweed (ragweed [4]; 1000 g ai/ha): 100
